Some test systems named below: BT-549; HCC 2998; HCT-116; HL-60; HOP-62; LOX IMVI; M19-MEL; NCI-H23; NCI-H460; OVCAR-5; OVCAR-8; RPMI-8226; RXF 393; SF-268; SF-539; SN12C; SNB-75; SR; T47D; U-251.
Assay in all cases: NCI anticancer screen, dose series, 48 h

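Dose response: 5 concentrations. Exposure: 48 h. Format: 96-well plates. Endpoint: linear interpolation; highest concentration if not reached. GI50 is the concentration that inhibits growth by half.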 Activity calls are given as the source filed them. No stated cut-off is given here; in the data, active = GI50 up to about 1.1 µM and inactive = higher.

For `CC1CSC(=S)N1C(=O)N1C(=S)SCC1C` (stereo not given), the GI50 in the assay on BT-549 is 24.7 µM (inactive); with HCC 2998, 36.6 µM (inactive); in the assay with HCT-116 it was 24.4 µM (inactive); with HL-60, 12.1 µM (inactive); in the assay with HOP-62 it was 43.4 µM (inactive); with LOX IMVI, 20.4 µM (inactive). In addition, the GI50 in the assay with M19-MEL was 25.6 µM (inactive); in the assay with NCI-H23, 20.3 µM (inactive); in the assay with NCI-H460, 24.1 µM (inactive); in the assay with OVCAR-5, 30.3 µM (inactive); in the assay with OVCAR-8, 16.7 µM (inactive); with RPMI-8226 it was 18.7 µM (inactive). Further, the GI50 in the assay with RXF 393 was 12.9 µM (inactive); with SF-268 it was 26.3 µM (inactive); in the assay with SF-539 it was 19.3 µM (inactive); with SN12C, 20.5 µM (inactive); in the assay on SNB-75, 23.4 µM (inactive); with SR, 12.5 µM (inactive). For the same compound, the GI50 with T47D was 28.6 µM (inactive); in the assay on U-251, 18.2 µM (inactive).
Take `C=C(c1ccccc1)[C@@]1(O)CC[C@@H]1N(CC#N)Cc1ccccc1`: the GI50 in the assay on BT-549 was 19.9 µM (inactive); in the assay on HCC 2998, 21.2 µM (inactive); in the assay with HCT-116 it was 16.6 µM (inactive); in the assay with HL-60 it was 32 µM (inactive); with HOP-62, 97.3 µM (inactive); in the assay on LOX IMVI it was 19.1 µM (inactive). The GI50 is 28.3 µM (inactive) in the assay with M19-MEL; 23.1 µM (inactive) with NCI-H23; 44.3 µM (inactive) with NCI-H460; 53.6 µM (inactive) in the assay with OVCAR-5; 33.4 µM (inactive) in the assay with OVCAR-8; 20 µM (inactive) with RPMI-8226. Also, the GI50 was 17.7 µM (inactive) with RXF 393; 33.5 µM (inactive) in the assay with SF-268; 29.2 µM (inactive) with SF-539; 20.1 µM (inactive) in the assay on SN12C; 33.9 µM (inactive) in the assay with SNB-75; 37.2 µM (inactive) in the assay on SR. Moreover, the GI50 is 16.3 µM (inactive) in the assay with T47D and 53.3 µM (inactive) with U-251.
In the case of `Cc1ccc2c(c1)CN(C(=O)CCC(=O)OCc1ccccc1)c1ccc(C)cc1CN2C(=O)CCC(=O)OCc1ccccc1`, the GI50 in the assay on BT-549 was > 100 µM (inactive); in the assay with HCC 2998, > 100 µM (inactive); in the assay with HCT-116 it was > 100 µM (inactive); in the assay on HL-60 it was > 100 µM (inactive); in the assay on HOP-62 it was > 78 µM (inactive); with LOX IMVI it was > 100 µM (inactive). Moreover, the GI50 in the assay on M19-MEL, in the assay on NCI-H23, in the assay on NCI-H460, with OVCAR-5, in the assay on OVCAR-8 and with RPMI-8226 was > 100 µM (inactive) in each case. For the same compound, the GI50 is > 100 µM (inactive) in the assay on RXF 393; > 100 µM (inactive) in the assay on SF-268; 88.3 µM (inactive) in the assay with SF-539; > 100 µM (inactive) in the assay with SN12C; 26.6 µM (inactive) in the assay on SNB-75; > 100 µM (inactive) in the assay with SR. The GI50 in the assay on T47D and in the assay with U-251 was > 100 µM (inactive) throughout.
In the case of `COc1cc([C@@H]2c3cc4c(cc3[C@@H](OC3OC5CO[C@@H](c6cccs6)OC5C(O)C3O)[C@H]3COC(=O)[C@H]23)OCO4)cc(OC)c1O` (stereo not given in full), the GI50 in the assay on BT-549 was 0.586 µM (active); with HCC 2998, 0.671 µM (active); in the assay on HCT-116 it was 0.885 µM (active); in the assay with HL-60 it was 0.0521 µM (active); in the assay with HOP-62 it was 0.135 µM (active); in the assay on LOX IMVI it was 0.206 µM (active). Besides, the GI50 with M19-MEL is 0.828 µM (active); in the assay on NCI-H23, 0.406 µM (active); in the assay with NCI-H460, 0.0171 µM (active); with OVCAR-5, 1.77 µM (inactive); in the assay with OVCAR-8 it was 0.538 µM (active); with RPMI-8226, 0.164 µM (active). Moreover, the GI50 in the assay on RXF 393 is 0.478 µM (active); with SF-268 it was 0.48 µM (active); in the assay on SF-539, 0.205 µM (active); in the assay with SN12C, 0.313 µM (active); with SNB-75 it was 0.502 µM (active); with SR it was 0.0117 µM (active). Also, the results for the GI50 with T47D and in the assay on U-251 were 0.162 µM (active) and 0.147 µM (active), respectively.

These data come from ChEMBL document CHEMBL1201862, “PubChem BioAssay data set” (2004).
